Like-named read-outs stand apart in the source and are kept apart here.
Columns and labels:
[1] = molecular target: T1, hCES1A (Homo sapiens, UniProt P23141); assay: Inhibition assay on hCES1A (bioluminogenic substrate NLMe); type: biochemical; conditions: for IC50: mean ± SD, n = 3; for hCES1A IC50 Fold Increase: ratio of IC50 at 3 min to IC50 at 33 min
T1 sequence (P23141 18-567): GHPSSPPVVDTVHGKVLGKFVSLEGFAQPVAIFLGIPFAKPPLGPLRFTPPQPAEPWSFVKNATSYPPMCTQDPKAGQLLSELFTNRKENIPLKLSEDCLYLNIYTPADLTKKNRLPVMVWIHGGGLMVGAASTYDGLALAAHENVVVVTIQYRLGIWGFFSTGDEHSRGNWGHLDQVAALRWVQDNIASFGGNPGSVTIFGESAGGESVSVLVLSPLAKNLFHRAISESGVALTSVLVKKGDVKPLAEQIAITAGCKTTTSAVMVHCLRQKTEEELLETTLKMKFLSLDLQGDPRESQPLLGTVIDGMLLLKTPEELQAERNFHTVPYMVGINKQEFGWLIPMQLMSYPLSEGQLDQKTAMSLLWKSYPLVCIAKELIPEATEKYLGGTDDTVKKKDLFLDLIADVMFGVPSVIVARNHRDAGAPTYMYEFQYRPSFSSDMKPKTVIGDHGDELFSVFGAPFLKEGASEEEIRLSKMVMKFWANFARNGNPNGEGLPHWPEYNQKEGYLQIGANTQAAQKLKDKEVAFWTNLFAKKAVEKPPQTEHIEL
Description: In this study, a known bioluminogenic probe substrate NLMe was used for human carboxylesterase 1 (hCES1A) inhibition assays. ([Wang et al., 2020]). In brief, the incubation mixture (0.1 mL) consisted of 0.1 M buffer PBS (PH 6.5), hCES1A (0.1 μg/mL, final concentration) and each test compound. […] After 20 min incubation, equal volume of LDR was added to stop reaction. The luminescence signals were monitored in the microplate reader (SpectraMax iD3Molecular Devices, Austria). […]
(§1) The household library of covalent fragments including D and F was from Organic Chemistry […]
(§2) Fig. S1. Partial fragment molecules of a household library targeting to serine. […]
Inhibition assay on hCES1A
In this study, a known bioluminogenic probe substrate NLMe was used for human carboxylesterase 1 (hCES1A) inhibition assays. 2 In brief, the incubation mixture (0.1 mL) consisted of 0.1 M buffer PBS (PH 6.5), hCES1A (0.1 μg/mL, final concentration) and each test compound. […]
After 20 min incubation, equal volume of LDR was added to stop reaction.

[2] = molecular target: T2, hCES2A (Homo sapiens, UniProt O00748); assay: Inhibition assay on hCES2A (fluorescent substrate FD); type: biochemical; conditions: mean ± SD, n = 3
T2 sequence (O00748 27-559): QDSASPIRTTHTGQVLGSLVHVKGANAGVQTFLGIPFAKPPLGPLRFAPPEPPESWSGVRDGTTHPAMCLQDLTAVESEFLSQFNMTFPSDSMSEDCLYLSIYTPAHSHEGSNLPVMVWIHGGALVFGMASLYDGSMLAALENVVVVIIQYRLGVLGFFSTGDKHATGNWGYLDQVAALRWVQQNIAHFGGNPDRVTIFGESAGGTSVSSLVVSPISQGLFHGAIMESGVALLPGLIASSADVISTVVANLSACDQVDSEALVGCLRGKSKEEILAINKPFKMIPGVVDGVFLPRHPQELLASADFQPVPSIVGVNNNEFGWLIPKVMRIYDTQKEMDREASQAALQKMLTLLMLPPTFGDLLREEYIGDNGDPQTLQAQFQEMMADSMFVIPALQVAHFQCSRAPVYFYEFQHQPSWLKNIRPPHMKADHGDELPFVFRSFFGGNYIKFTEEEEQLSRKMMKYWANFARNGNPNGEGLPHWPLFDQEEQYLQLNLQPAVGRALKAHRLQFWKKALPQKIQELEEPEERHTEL
Description: 1. Detailed experimental, materials, and methods
as §1, §2
Inhibition assay on hCES2A
Human carboxylesterase 2 (hCES2A) inhibition assays were conducted using FD, a known fluorescent substrate. 3 Briefly, hCES2A (0.4 μg/mL, final concentration) was preincubated with analytes/DMSO (as a control group) in PBS (pH 7.4) at 37 °C for 3 min. This was followed by adding the substrate FD (4 μM, final concentration) in the incubation mixture and allowing it to react for 30 min. The fluorescent signals (excitation/emission, 480 nm/525 nm) were continuously recorded by a microplate reader (SpectraMax iD3Molecular Devices, Austria). […]

[3] = molecular target: T1, hCES1A; assay: Co-crystallography with hCES1A; type: binding; conditions: 1:5 molar ratio
Description: Purified hCES1A incubated with F-3 and F-4 at 1:5 M ratio for 1 h at 18°C. Crystallisation screening was performed using commercially available kit sets using sitting drop vapor diffusion at 16°C. Both diffraction-quality crystals were obtained from the condition containing 14.4% peg8000 (w/v), 0.1M MES 6.4, 0.3M CaAc and 20% glycerol. Crystals were flash cooled in liquid nitrogen after cryoprotection in 25% glycerin. Date was collected on 02U1 at Shanghai Synchrotron Radiation Facility (SSRF). Data images were processed using program HKL2000. ([Otwinowski and Minor, 1997]). Crystal structures were solved using molecular replacement with the Phenix software suite using unbound hces1a (Protein Data Bank [PDB] accession number 1MX1 as the search model. Structure refinement was performed using Phenix. ([Adams et al., 2010]). The program COOT was used for manual rebuilding. ([Emsley and Cowtan, 2004]). Molecular graphics images were generated using CCP4MG. ([McNicholas et al., 2011]). […]
fluorogenic probe. 4 Briefly, the incubation mixtures (0.1 mL) contained Tris-HCl buffer, hPL solution (0.25 μg/mL, final concentration), porcine bile salt (0.1 mg/mL, final concentration) and each inhibitor (with different concentrations). […] The fluorescent signals of hydrolytic product were quantified by using the microplate reader (Spectra Max M4, Austria), with the wavelength of 600 nm and 660 nm for excitation and emission, respectively. […]
OPTS, a known fluorogenic probe, was used as the substrate to assess the residual activities of Notum in the presence of each tested compound. […] After preincubated at 37 °C for 1 min, OPTS was added to initiate the hydrolytic reaction and the multi-mode microplate reader (SpectraMax iD3, Molecular Devices, Austria) was used to analyze the florescence signals of the […]
The F-3, F-4, F-10-bound peptides was analysed using the nanoLC-MS/MS system, respectively.6 The purified hCES1A (150 μg, final content) was co-incubated with the small molecule inhibitor F-3/ F-4/ F-10 (100 μM, final concentration) at 4 °C and 25 °C, respectively, for 4h. […]

[4] = 3 min incubation, read-out: hCES1A IC50 3 min
[5] = 33 min incubation, read-out: hCES1A IC50 33 min
[6] = 3 min incubation, read-out: hCES2A IC50 3 min
[7] = 33 min incubation, read-out: hCES2A IC50 33 min

Row | Compound | IC50 [1, 4] | IC50 [1, 5] | hCES1A IC50 Fold Increase [1] | IC50 [2, 6] | IC50 [2, 7] | covalent binding mode at the catalytic triad (Ser221) in co-crystal [3]
1 | O=C(c1ccc(Cl)cc1)C(F)F [Compound F1-1] | 58 ± 6 nM | 102 ± 37.4 nM | 0.6 |  |  | 
2 | O=C(CF)c1ccc(Cl)cc1 [Compound F1-2] | 1210 nM | 874 ± 92.2 nM | 1.4 |  |  | 
3 | O=C(c1cc(Cl)c(Cl)c(Cl)c1)C(F)(F)F [Compound F-10] | 30 ± 4.5 nM | 2.8 ± 0.4 nM | 10.7 |  |  | 
4 | O=C(c1ccc(C(F)(F)F)cc1)C(F)(F)F [Compound F-11] | > 2000 nM | > 2000 nM |  |  |  | 
5 | Nc1ccc(C(=O)C(F)(F)F)cc1 [Compound F-12] | 470 ± 120 nM | 670 ± 130 nM |  |  |  | 
6 | COc1ccc(C(=O)C(F)(F)F)cc1 [Compound F-14] | 30.2 ± 12.1 nM | 29.7 ± 20.7 nM |  |  |  | 
7 | CCc1ccc(C(=O)C(F)(F)F)cc1 [Compound F-15] | 18.7 ± 4.2 nM | 23.8 ± 12.4 nM |  |  |  | 

Continued, in another order:

Row | IC50 [1, 4] | IC50 [1, 5] | hCES1A IC50 Fold Increase [1] | IC50 [2, 6] | IC50 [2, 7] | Compound | covalent binding mode at the catalytic triad (Ser221) in co-crystal [3]
8 | 14.4 ± 1.9 nM | 1.9 ± 0.2 nM | 7.6 | 59.1 ± 9.8 nM | 71.3 ± 19.4 nM | O=C(c1ccc(Cl)cc1)C(F)(F)F [Compound F-1] | 
9 | 34.1 ± 5.3 nM | 2.5 ± 0.4 nM | 13.6 | 76.8 ± 10.9 nM | 90 ± 21 nM | O=C(c1cccc(Cl)c1)C(F)(F)F [Compound F-2] | 
10 | 11.6 ± 0.7 nM | 2.3 ± 0.4 nM | 5.0 | 102 ± 20.6 nM | 85.6 ± 36 nM | O=C(c1ccccc1Cl)C(F)(F)F [Compound F-3] | promising covalent binding modes
11 | 10 ± 1.4 nM | 2.4 ± 0.4 nM | 4.2 |  |  | O=C(c1ccc(Cl)c(Cl)c1)C(F)(F)F [Compound F-4] | forming an expected hemiacetal covalent bond
12 | 17 ± 3 nM | 1.7 ± 0.5 nM | 10.0 |  |  | O=C(c1cccc(Br)c1)C(F)(F)F [Compound F-5] | 
13 | 9.9 ± 1.01 nM | 52.8 ± 15.9 nM | 0.2 |  |  | O=C(c1ccccc1Br)C(F)(F)F [Compound F-6] | 
14 | 16.1 ± 2.3 nM | 2.1 ± 0.6 nM | 7.7 |  |  | O=C(c1ccc(Br)cc1)C(F)(F)F [Compound F-7] | 
15 | 1700 nM | 603 ± 107 nM | 2.8 |  |  | O=C(c1ccc(F)cc1)C(F)(F)F [Compound F-8] | 
16 | 37.7 ± 8.6 nM | 6.2 ± 1.1 nM | 6.1 |  |  | O=C(c1ccc(I)cc1)C(F)(F)F [Compound F-9] | 

Reference: publication PMC11649397, “The study of halogen effect on the reactivity of the serine-targeting covalent warheads” (Frontiers in Chemistry, 2024)
